Here are results for one compound from ChEMBL document CHEMBL1649554, “Specific therapeutic schemes of omeprazole affect the orientation of Helicobacter pylori” (Antimicrob Agents Chemother, 2009).

Molecules are shown by their SMILES. Calls of active or inactive are those of the source. The rule behind the calls is not given here.

Experiment [1] has as its system Helicobacter pylori. The experiment can be described thus: Antibacterial activity against Helicobacter pylori SS1 infected in Mongolian gerbils assessed as bacterial density in mucus in 15 to 25 um above the Juxtamucosal layer at 100 uM, ip administered as single dose through dialysis measured after 90 mins post last dose. It counts as functional.
Experiment [2] concerns Helicobacter pylori. Nature of the experiment: Antibacterial activity against Helicobacter pylori SS1 infected in Mongolian gerbils assessed as bacterial disorientation in 0 to 15 um above the Juxtamucosal layer at 20 uM, ip administered as single dose through dialysis measured after 90 mins post last dose. The class given is functional, organism-based.
For experiment [3], the system named is Helicobacter pylori. Nature of the experiment: Antibacterial activity against Helicobacter pylori SS1 infected in Mongolian gerbils assessed as bacterial density in mucus in luminal mucus layer at 100 uM, ip administered as single dose through dialysis measured after 90 mins post last dose. It counts as functional.

Regarding `COc1ccc2[nH]c([S+]([O-])Cc3ncc(C)c(OC)c3C)nc2c1` (stereo not drawn) [OMEPRAZOLE], the values for the Activity in the experiment with Helicobacter pylori [1] and in the experiment on Helicobacter pylori [3] were 330 nL⁻¹ and 60 nL⁻¹, respectively. In the experiment on Helicobacter pylori [2], the result was Active.
